Like-named read-outs stand apart in the source and are kept apart here.
Legend:
[1] = Plasma free fraction (fu) and unbound Cmax (Cmax,u); format: in vitro ADME, human; conditions: unbound plasma Cmax
Protocol: The prediction of DILI severity was evaluated further using the 3D combined HCI assays using plasma-free fraction. The majority of fu values were obtained from literature, when unavailable in-house prediction was utilised. Unbound plasma Cmax concentrations (Cmax,u) were derived by multiplying total plasma Cmax with the corresponding free fraction (fu) for each compound.

[2] = tested on: PHH spheroids; set-up: method as in Bell et al. 2016; conditions: 48-h exposure; ref Bell et al. 2016; cited from earlier work
[3] = tested on: PHH liver spheroid; set-up: method as in Foster et al. 2019; conditions: liver-chip of comparable sensitivity, ref Foster et al. 2019; cited from earlier work
[4] = cited from earlier work
[5] = tested on: HepG2 cells; conditions: cited from earlier work
[6] = tested on: HepG2 cells; conditions: cited from earlier work; remark: listed apart in the source
[7] = tested on: HepG2 cells; conditions: cited from earlier work; remark: listed apart in the source
[8] = tested on: PHH spheroids; conditions: cited from earlier work
[9] = read-out: Human plasma Cmax; total plasma Cmax.tot, median of 9 literature references; cited from earlier work
[10] = plasma free fraction; cited from earlier work
[11] = cited from earlier work; remark: listed apart in the source
[12] = phase I clinical trials; ref Manning and Swartz 1995; McKenzie et al. 1995; cited from earlier work
[13] = tested on: THLE-Null and THLE-3A4 cells; conditions: In vitro Assay; ref Gustafsson 2014; cited from earlier work
[14] = tested on: rBsep; conditions: In vitro Assay; ref Dawson 2012; cited from earlier work
[15] = tested on: hLiMTs; experiment: Combined HCI (HCS) and cellular ATP 3D assay in hLiMTs
[16] = tested on: HepaRG spheroids; experiment: Combined HCI (HCS) and cellular ATP 3D assay in HepaRG spheroids; conditions: for AC50 / minimal effective concentration: Homo sapiens
[17] = tested on: rBsep; set-up: method as in Dawson 2012; conditions: ref Dawson 2012, cited from earlier work
[18] = In vitro Assay, ref Persson 2013
[19] = Microtissue model structural based (HCI), combined HCS and ATP, MEC < 25 × Cmax.tot cut-off

O=c1[nH]c(=O)n([C@@H]2O[C@H](CO)[C@@H](O)[C@@H]2F)cc1I [fialuridine]
Human plasma Cmax,u [1]: 295 nM | toxicity in PHH spheroids [2]: no toxicity | detection in 3D microtissues [3]: detected | DILI severity category (Chen et al. [2016]) ([4]; LTKB DILIrank category, ref Chen et al. 2016): Most | DILI severity category (Chen 2016) ([4]; human DILI classification, LTKB DILIrank, ref Chen et al. 2016): Most | DILI severity category ([4]; human DILI severity, ref Chen et al.): Most | DILI +VE (5-8), DILI -VE (-4) ([4]; ref Chen 2016): +VE | DILI severity category ([4]; ref Chen 2016): vMost-DILI-Concern | Structural based (HCI) ([5]; In vitro Assay, ref O'Brien 2006): +VE | DILI in vitro assay prediction, O'Brien (2006) ([5]; Structural based (HCI), HepG2, ref O'Brien et al. 2006): +VE (lowest HCI endpoint IC50 (or in the absence of dose–response < 100 µM) < 30 × total human plasma exposure levels (Cmax.tot)) | Cluser analysis [6, 18]: -VE | Structural based (HCI) [6, 18]: +VE | DILI in vitro assay prediction, Persson (2013) ([6]; Structural based (HCI), HepG2, ref Persson et al. 2013): -VE | Structural based (HCI) ([7]; In vitro Assay, ref Tolosa 2012): +VE | DILI in vitro assay prediction, Tolosa (2012) ([7]; Structural based (HCI), HepG2, ref Tolosa et al. 2012): +VE | hLiMTs ATP <20 x Cmax ([8]; In vitro Assay, ref Vorrink 2018): +VE (IC20 < 20 × Cmax.tot cut-off) | DILI in vitro assay prediction, Vorrink (2018) ([8]; PHH spheroids, ATP, 14 days, IC20 < 20 × Cmax.tot, ref Vorrink et al. 2018): +VE (IC20 < 20 × Cmax.tot cut-off) | Cmax [9]: 820 nM | fu [10]: 0.360 | Assigned DILI category ([11]; Chen et al. 2016 or literature alignment, ref Chen et al. 2016): 3 | In vivo DILI ([11]; ref Dawson 2012): +VE | In vivo DILI ([11]; ref Gustafsson 2014): +VE | In vivo DILI ([11]; ref O'Brien 2006): +VE | In vivo DILI ([11]; ref Persson 2013): +VE | In vivo DILI ([11]; ref Tolosa 2012): +VE | In vivo DILI ([11]; ref Vorrink 2018): +VE | clinical liver finding [12]: fatal hepatotoxicity | THLE-Null [13]: -VE | THLE-Null/3A4 [13]: -VE | Inhibition of rBsep cutoff<1& cmax u>.2 [14]: -VE | Inhibition of rBsep cutoff<3 [14]: -VE | AC50 ([15]; Homo sapiens, read-out: ATP endpoint AC50): 6.3 µM | minimal effective concentration ([15]; Homo sapiens, read-out: ATP endpoint MEC): 0.932 µM | minimal effective concentration ([15]; Homo sapiens, read-out: HCS endpoint MEC): 6.54 µM | DILI prediction hLiMTs (HCS-MEC) [15, 19]: +VE (MEC < 25 × Cmax.tot cut-off) | hLiMTs <25x Avg Cmax ATP ([15]; hLiMTs, ATP endpoint, cut-off <25x Avg Cmax): +ve | hLiMTs <100x Avg Cmaxu ATP ([15]; hLiMTs, ATP endpoint, cut-off <100x Avg Cmaxu): +ve (<100x Avg Cmaxu) | hLiMTs <25x Avg Cmax HCS ([15]; hLiMTs, HCS endpoints, cut-off <25x Avg Cmax): +ve | hLiMTs <100x Avg Cmaxu HCS ([15]; hLiMTs, HCS endpoints, cut-off <100x Avg Cmaxu): +ve (<100x Avg Cmaxu) | hLiMTs <25x Avg Cmax All ([15]; hLiMTs, all endpoints (ATP and HCS), cut-off <25x Avg Cmax): +ve | hLiMTs Cmax max All ([15]; hLiMTs, all endpoints, Cmax max used): +ve | hLiMTs Cmax min All ([15]; hLiMTs, all endpoints, Cmax min used): +ve | hLiMTs <10 uM All ([15]; hLiMTs, all endpoints, cut-off <10 uM): +ve (<10 uM) | hLiMTs <100x Avg Cmaxu All ([15]; hLiMTs, all endpoints, cut-off <100x Avg Cmaxu): +ve (<100x Avg Cmaxu) | HepaRG <25x Avg Cmax ATP ([16]; HepaRG, ATP endpoint, cut-off <25x Avg Cmax): +ve | HepaRG <100x Avg Cmaxu ATP ([16]; HepaRG, ATP endpoint, cut-off <100x Avg Cmaxu): +ve (<100x Avg Cmaxu) | HepaRG <25x Avg Cmax HCS ([16]; HepaRG, HCS endpoints, cut-off <25x Avg Cmax): +ve | HepaRG <100x Avg Cmaxu HCS ([16]; HepaRG, HCS endpoints, cut-off <100x Avg Cmaxu): +ve (<100x Avg Cmaxu) | HepaRG <25x Avg Cmax All ([16]; HepaRG, all endpoints (ATP and HCS), cut-off <25x Avg Cmax): +ve | HepaRG Cmax max All ([16]; HepaRG, all endpoints, Cmax max used): +ve | HepaRG Cmax min All ([16]; HepaRG, all endpoints, Cmax min used): +ve | HepaRG <10 uM All ([16]; HepaRG, all endpoints, cut-off <10 uM): +ve (<10 uM) | HepaRG <100x Avg Cmaxu All ([16]; HepaRG, all endpoints, cut-off <100x Avg Cmaxu): +ve (<100x Avg Cmaxu) | AC50 ([16]; HepaRG, read-out: ATP endpoint AC50): 9.16 µM | minimal effective concentration ([16]; HepaRG, read-out: ATP endpoint MEC): 1.28 µM | AC50 ([16]; HepaRG, read-out: HCS endpoint AC50): 115 µM | minimal effective concentration ([16]; HepaRG, read-out: HCS endpoint MEC): 5.78 µM | DILI prediction HepaRG spheroids (HCS-MEC) [16, 19]: +VE (MEC < 25 × Cmax.tot cut-off)

CO[C@H]1/C=C/O[C@@]2(C)Oc3c(C)c(O)c4c(O)c(cc(O)c4c3C2=O)NC(=O)/C(C)=C\C=C\[C@H](C)[C@H](O)[C@@H](C)[C@@H](O)[C@@H](C)[C@H](OC(C)=O)[C@@H]1C [rifamycin SV]
Inhibition of rBsep cutoff<1& cmax u>.2 ([17]; cutoff<1& cmax u>.2): +VE | Inhibition of rBsep cutoff<3 ([17]; cutoff<3): +VE | In vivo DILI ([11]; assignment in Dawson 2012, ref Dawson 2012): +VE
